Values quoted from earlier work, collected in patent US20220211687A1, “USE OF ARIMOCLOMOL IN THE TREATMENT OF NIEMANN PICK DISEASE” (Orphazyme A/S, priority 2020, published 2022).

System: Niemann—Pick disease type C (NPC)
Conditions: background statement; cited from earlier work

CCCCN1C[C@H](O)[C@@H](O)[C@H](O)[C@H]1CO [miglustat, (2R,3R,4R,5 S)-1-butyl-2-(hydroxymethyl)piperidine-3 ,4,5-triol]
Effect on slowing NPC disease progression: only a modest effect on slowing disease progression
